Data taken from ChEMBL document CHEMBL4406869, “Benzo[b]thiophene-thiazoles as potent anti-Toxoplasma gondii agents: Design, synthesis, tyrosinase/tyrosine hydroxylase inhibitors, molecular docking study, and antioxidant activity” (Eur J Med Chem, 2019).

How the values were obtained:
L929 = assay: Cytotoxicity against mouse L929 cells assessed as reduction in cell viability after 24 hrs by MTT assay; type: cell-based; conditions: l929, 24 h
Toxoplasma gondii [1] = assay: (§1) Antiparasitic activity against Toxoplasma gondii RH tachyzoites infected in human Hs27 cells assessed as inhibition of parasitic growth preincubated for 24 hrs followed by [5,6-3H]uracil addition and measured after 72 hrs by liquid scintillation counting analysis; type: functional, organism-based
[2] = Selectivity ratio of CC30 for cytotoxicity against mouse L929 cells to IC50 for antiparasitic activity against Toxoplasma gondii RH infected in human Hs27 cells; type: toxicity, cell-based
Toxoplasma gondii [3] = assay: (§2) Antiparasitic activity against Toxoplasma gondii ME49 tachyzoites infected in human Hs27 cells assessed as inhibition of parasitic growth preincubated for 24 hrs followed by [5,6-3H]uracil addition and measured after 72 hrs by liquid scintillation counting analysis; type: functional, organism-based
[4] = Selectivity ratio of CC30 for cytotoxicity against mouse L929 cells to IC50 for antiparasitic activity against Toxoplasma gondii Me49 infected in human Hs27 cells; type: toxicity, cell-based
Tyrosinase = biological target: T1, Tyrosinase (Agaricus bisporus, UniProt O42713); assay: Inhibition of mushroom tyrosinase using L-dopa as substrate by spectrophotometric method
T1 sequence (O42713 whole entry): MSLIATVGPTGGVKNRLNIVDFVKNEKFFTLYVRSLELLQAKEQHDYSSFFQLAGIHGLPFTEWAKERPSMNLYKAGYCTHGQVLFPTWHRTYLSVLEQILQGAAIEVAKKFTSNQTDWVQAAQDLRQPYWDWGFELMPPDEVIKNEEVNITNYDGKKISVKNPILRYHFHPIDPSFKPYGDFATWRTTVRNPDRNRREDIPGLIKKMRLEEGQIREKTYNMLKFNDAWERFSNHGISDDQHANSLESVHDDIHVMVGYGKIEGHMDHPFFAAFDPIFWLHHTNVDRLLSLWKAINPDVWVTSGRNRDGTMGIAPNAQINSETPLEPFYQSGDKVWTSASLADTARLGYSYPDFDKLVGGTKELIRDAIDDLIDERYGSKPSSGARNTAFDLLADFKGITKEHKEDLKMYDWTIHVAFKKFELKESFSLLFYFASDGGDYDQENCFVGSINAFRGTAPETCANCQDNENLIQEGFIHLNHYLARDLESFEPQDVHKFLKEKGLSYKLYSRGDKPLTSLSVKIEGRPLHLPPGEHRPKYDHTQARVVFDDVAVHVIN

[5] = Antioxidant activity assessed as DPPH radical scavenging activity incubated for 30 mins under dark condition by Uv-vis spectrophotometric method; type: functional
[6] = Potency index, ratio of butylated hydroxytoluene IC50 to test compound IC50 for antioxidant activity assessed as DPPH radical scavenging activity; type: functional
[7] = Cytotoxicity against mouse L929 cells assessed as cell viability at 100 ug/ml after 24 hrs by MTT assay relative to control; type: cell-based; conditions: read-out: Activity
[8] = Cytotoxicity against mouse L929 cells assessed as cell viability at 400 ug/ml after 24 hrs by MTT assay relative to control; type: cell-based; conditions: read-out: Activity
[9] = Cytotoxicity against mouse L929 cells assessed as cell viability at 200 ug/ml after 24 hrs by MTT assay relative to control; type: cell-based; conditions: read-out: Activity
[10] = Cytotoxicity against mouse L929 cells assessed as cell viability at 50 ug/ml after 24 hrs by MTT assay relative to control; type: cell-based; conditions: read-out: Activity
[11] = Cytotoxicity against mouse L929 cells assessed as cell viability at 25 ug/ml after 24 hrs by MTT assay relative to control; type: cell-based; conditions: read-out: Activity
[12] = Cytotoxicity against mouse L929 cells assessed as cell viability at 12.5 ug/ml after 24 hrs by MTT assay relative to control; type: cell-based; conditions: read-out: Activity
[13] = Cytotoxicity against mouse L929 cells assessed as cell viability at 6.25 ug/ml after 24 hrs by MTT assay relative to control; type: cell-based; conditions: read-out: Activity
[14] = Cytotoxicity against mouse L929 cells assessed as cell viability at 3.125 ug/ml after 24 hrs by MTT assay relative to control; type: cell-based; conditions: read-out: Activity
[15] = Cytotoxicity against mouse L929 cells assessed as cell viability at 1.56 ug/ml after 24 hrs by MTT assay relative to control; type: cell-based; conditions: read-out: Activity
[16] = Cytotoxicity against mouse L929 cells assessed as cell viability at 0.78 ug/ml after 24 hrs by MTT assay relative to control; type: cell-based; conditions: read-out: Activity
Toxoplasma gondii [17] = assay: as §1, with “reduction in parasite proliferation at 100 ug/mL” for “inhibition of parasitic growth”, “analysis relative to control” for “analysis”; type: functional; parameters: scale not given: the % may be the effect or the level left
Toxoplasma gondii [18] = assay: as §2, with “reduction in parasite proliferation at 100 ug/mL” for “inhibition of parasitic growth”, “analysis relative to control” for “analysis”; type: functional; parameters: scale not given: the % may be the effect or the level left
Toxoplasma gondii [19] = assay: (§3) Antiparasitic activity against Toxoplasma gondii RH tachyzoites infected in human Hs27 cells assessed as reduction in parasite proliferation at 50 ug/mL preincubated for 24 hrs followed by [5,6-3H]uracil addition and measured after 72 hrs by liquid scintillation counting analysis relative to control; type: functional; parameters: scale not given: the % may be the effect or the level left
Toxoplasma gondii [20] = assay: as §3, with “ME49” for “RH”; type: functional; parameters: scale not given: the % may be the effect or the level left
Toxoplasma gondii [21] = assay: (§4) Antiparasitic activity against Toxoplasma gondii RH tachyzoites infected in human Hs27 cells assessed as reduction in parasite proliferation at 25 ug/mL preincubated for 24 hrs followed by [5,6-3H]uracil addition and measured after 72 hrs by liquid scintillation counting analysis relative to control; type: functional; parameters: scale not given: the % may be the effect or the level left
Toxoplasma gondii [22] = assay: as §4, with “ME49” for “RH”; type: functional; parameters: scale not given: the % may be the effect or the level left
Toxoplasma gondii [23] = assay: as §3, with “12.5” for “50”; type: functional; parameters: scale not given: the % may be the effect or the level left
Toxoplasma gondii [24] = assay: as §3, with “ME49” for “RH”, “12.5” for “50”; type: functional; parameters: scale not given: the % may be the effect or the level left
Toxoplasma gondii [25] = assay: as §3, with “6.25” for “50”; type: functional; parameters: scale not given: the % may be the effect or the level left
Toxoplasma gondii [26] = assay: as §3, with “ME49” for “RH”, “6.25” for “50”; type: functional; parameters: scale not given: the % may be the effect or the level left
Toxoplasma gondii [27] = assay: as §3, with “3.125” for “50”; type: functional; parameters: scale not given: the % may be the effect or the level left
Toxoplasma gondii [28] = assay: as §3, with “ME49” for “RH”, “3.125” for “50”; type: functional; parameters: scale not given: the % may be the effect or the level left
Toxoplasma gondii [29] = assay: as §3, with “1.56” for “50”; type: functional; parameters: scale not given: the % may be the effect or the level left
Toxoplasma gondii [30] = assay: as §3, with “ME49” for “RH”, “1.56” for “50”; type: functional; parameters: scale not given: the % may be the effect or the level left
Toxoplasma gondii [31] = assay: as §3, with “0.78” for “50”; type: functional; parameters: scale not given: the % may be the effect or the level left
Toxoplasma gondii [32] = assay: as §3, with “ME49” for “RH”, “0.78” for “50”; type: functional; parameters: scale not given: the % may be the effect or the level left
Toxoplasma gondii [33] = assay: as §3, with “0.39” for “50”; type: functional; parameters: scale not given: the % may be the effect or the level left

COc1cc(Cc2cnc(N)nc2N)cc(OC)c1OC [TRIMETHOPRIM]
CC30 (L929): 55.11 µM
IC50 (Toxoplasma gondii [1]): 41.8 µM
selectivity ratio [2]: 1.32
IC50 (Toxoplasma gondii [3]): 39.2 µM
selectivity ratio [4]: 1.4

Fc1ccc(-c2csc(N/N=C/c3cc4ccccc4s3)n2)cc1
CC30 (L929): 1385.75 µM
IC50 (Tyrosinase): 396 µM

O=c1oc2ccccc2cc1-c1csc(N/N=C/c2cc3ccccc3s2)n1
IC50 [5]: 15.9 µM
Ratio IC50 [6]: 10

C(=N\Nc1nc(C23CC4CC(CC(C4)C2)C3)cs1)/c1cc2ccccc2s1
viability at 24 h, 100 ug/ml [7]: 89%
viability at 24 h, 400 ug/ml [8]: 76.8%
CC30 (L929): 1333.46 µM
IC50 (Toxoplasma gondii [1]): 51.9 µM
viability at 24 h, 200 ug/ml [9]: 81.8%
viability at 24 h, 50 ug/ml [10]: 90.7%
viability at 24 h, 25 ug/ml [11]: 98.3%
viability at 24 h, 12.5 ug/ml [12]: 96.5%
viability at 24 h, 6.25 ug/ml [13]: 101%
viability at 24 h, 3.125 ug/ml [14]: 104%
viability at 24 h, 1.56 ug/ml [15]: 105%
viability at 24 h, 0.78 ug/ml [16]: 107%
Activity (Toxoplasma gondii [17]): 6.32%
Activity (Toxoplasma gondii [18]): 0.53%
Activity (Toxoplasma gondii [19]): 28.7%
Activity (Toxoplasma gondii [20]): 1.17%
Activity (Toxoplasma gondii [21]): 46.12%
Activity (Toxoplasma gondii [22]): 5.61%
Activity (Toxoplasma gondii [23]): 58.29%
Activity (Toxoplasma gondii [24]): 7.85%
Activity (Toxoplasma gondii [25]): 83.32%
Activity (Toxoplasma gondii [26]): 9.6%
Activity (Toxoplasma gondii [27]): 90.86%
Activity (Toxoplasma gondii [28]): 25.5%
Activity (Toxoplasma gondii [29]): 101.85%
Activity (Toxoplasma gondii [30]): 49.76%
Activity (Toxoplasma gondii [31]): 92.05%
Activity (Toxoplasma gondii [32]): 101.96%
Activity (Toxoplasma gondii [33]): 1.24%
selectivity ratio [2]: 25.7
IC50 (Toxoplasma gondii [3]): 8.74 µM
selectivity ratio [4]: 153
IC50 (Tyrosinase): 329 µM
IC50 [5]: 15.5 µM

Clc1ccc(-c2csc(N/N=C/c3cc4ccccc4s3)n2)cc1
CC30 (L929): 1255.05 µM
IC50 (Tyrosinase): 390 µM

Ic1ccc(-c2csc(N/N=C/c3cc4ccccc4s3)n2)cc1
CC30 (L929): 946.2 µM
IC50 (Tyrosinase): 431 µM

Brc1ccc(-c2csc(N/N=C/c3cc4ccccc4s3)n2)cc1
CC30 (L929): 283.56 µM
IC50 (Tyrosinase): 433 µM

Cc1cc(C(C)(C)C)c(O)c(C(C)(C)C)c1 [BUTYLATED HYDROXYTOLUENE]
IC50 [5]: 180 µM

Nc1ccc(S(=O)(=O)Nc2ncccn2)cc1 [SULFADIAZINE]
CC30 (L929): >= 5000 uM
selectivity ratio [2]: 0.46
IC50 (Toxoplasma gondii [3]): 13000 µM
selectivity ratio [4]: 0.39

Cc1ccc(-c2csc(N/N=C/c3cc4ccccc4s3)n2)cc1
CC30 (L929): 884.28 µM
IC50 (Tyrosinase): 466 µM
